Assay results taken from patent US20260234159A1, “SMALL MOLECULE TREATMENT OF FATTY LIVER DISEASE AND HCC” (SCANDIEDGE THERAPEUTICS AB, priority 2023, published 2026).
Where two headings read alike, the source gives them in different places.

Legend:
HepG2 cells = experiment: Triglyceride (TAG) measurement assay, one week steatosis model; format: cell-based, human; conditions: for activity at 10 µM: Homo sapiens
Description: (§1) HepG2 wild type cells were purchased from genome engineering company Synthego. Cells were maintained with Roswell Park Memorial Institute growth media, RPMI, 1640 (R2405, Sigma-Aldrich) and supplemented with 10% fetal bovine serum (FBS, F7524, Sigma-Aldrich), 1% penicillin-streptomycin (P/S, P4333, Sigma-Aldrich). Steatosis induction media was prepared as high glucose Dulbecco's Modified Eagle Media (DMEM, D0819, Sigma-Aldrich) with 10% FBS, 1% P/S media supplemented with 10 μg/ml insulin (I9278, Sigma-Aldrich), and 10 μM T0901317 (T2320, Sigma-Aldrich). HepG2 cells were seeded 6×10^4 cells per well for 96-well plate and 1×10^6 cells per well for 6-well plate. HepG2 cells were incubated with steatosis induce media (SM) for one week by 3 day+2 day+2 day with total three times media exchange.
HepG2 cells were seeded at 6×10^4 cells per well into 96 well plate and induced steatosis for one week with 10 μM of target drugs. After steatosis induction, cells were washed with 200 μl of phosphate buffered saline (PBS) and triglyceride contents was measured by Triglyceride Assay Kit—Quantification (ab65336, Abcam) following manufacturer's instruction. Optical density (O.D) values were detected with microplate reader at 570 nm (Hidex Sense Beta Plus).
(§2) HepG2 cells were seeded at 60,000 cells per well in 96 well plate. Using steatosis induce media, the cells were treated with 10 μM of target drugs for one week. The media was changed 3 times at day 0, day 3 and day 5. TAG assay was performed using MAK266-1KT SDS Triglyceride Quantification Colorimetric kit and cell viability analysis was performed using MTT assay.

[1] = MTT cell viability after one week steatosis (ranking of target molecules); format: cell-based, human; conditions: human, HepG2 cells (wild type); HepG2, 10 μM, one week steatosis induce media, MTT; Control 100.00
Description: as §1, §2

[2] = 168 h, HepG2, 10 μM, one week steatosis induce media, Control 100.00, read-out: TAG (%)
[3] = HepG2, 168 h, ratio between TAG content and cell viability, Control 100.0, read-out: TAG/cell viability

Structure (SMILES) | activity at 10 µM (HepG2 cells; [2]) | activity at 10 µM (HepG2 cells; [3]) | viability at 1 week, 10 µM [1] | TAG content/cell viability ratio lower than JNK-IN-5A (HepG2 cells) | ratio between TAG content and cell viability (HepG2 cells) | TAG/cell viability (HepG2 cells; ratio as printed in text with %)
N#Cc1c(NC(=O)c2cccc3ccccc23)sc2c1CCCCC2 [PKL-A56, N-(3-cyano-5,6,7,8-tetrahydro-4H-cyclohepta[b]thiophen-2-yl)-1-naphthamide] | 35.6% | 62.5% | 57% | – | – | –
CC(=O)N1CCc2c(sc(NC(=O)c3cccc4ccccc34)c2C#N)C1 [PKL-A114] | 14.1% | 28.6% | 49.4% | – | – | –
CCOC(=O)CN1CCc2c(sc(NC(=O)c3cccc4ccccc34)c2C#N)C1 [PKL-A118] | 62.1% | 68.2% | 91% | – | – | –
COc1ccc(C(=O)Nc2sc3ccccc3c2C#N)c2ccccc12 [PKL-A149] | 30.8% | 60.5% | 50.9% | – | – | –
COc1cccc(NC(=O)N2CCc3c(sc(NC(=O)c4cccc5ccccc45)c3C#N)C2)c1 [PKL-A151] | 11.5% | 18.7% | 61.6% | more than 3 times | low ratio between TAG content and cell viability | –
Cc1ccccc1NC(=O)N1CCc2c(sc(NC(=O)c3cccc4ccccc34)c2C#N)C1 [PKL-A153] | 13.2% | 31.2% | 42.5% | – | – | –
N#Cc1c(NC(=O)c2cccc3ccccc23)sc2c1CCN(C(=O)Nc1ccccc1[N+](=O)[O-])C2 [PKL-A154] | 13.9% | 30.3% | 46% | – | – | –
N#Cc1c(NC(=O)c2cccc3ccccc23)sc2c1CCN(C(=O)Nc1ccccc1Br)C2 [PKL-A157] | 12.8% | 35.1% | 36.5% | – | – | –
Cc1ccc(F)c(NC(=O)N2CCc3c(sc(NC(=O)c4cccc5ccccc45)c3C#N)C2)c1 [PKL-A160] | 14.9% | 26.4% | 56.4% | – | – | –
N#Cc1c(NC(=O)c2cccc3ccccc23)sc2c1CCN(C(=O)Nc1cccc3ccccc13)C2 [PKL-A161] | 13.2% | 29.8% | 44.1% | – | – | –
CN(C(=O)N1CCc2c(sc(NC(=O)c3cccc4ccccc34)c2C#N)C1)c1ccccc1 [PKL-A162] | 12.3% | 25.1% | 49.2% | – | low ratio between TAG content and cell viability | 25.1%
CCN(C)C(=O)N1CCc2c(sc(NC(=O)c3cccc4ccccc34)c2C#N)C1 [PKL-A163] | 12.7% | 27.2% | 46.6% | – | – | –
N#Cc1c(NC(=O)c2cccc3ccccc23)sc2c1CCN(C(=O)N(c1ccccc1)c1ccccc1)C2 [PKL-A164] | 17.3% | 37.6% | 46% | – | – | –
COc1ccc(S(=O)(=O)N2CCc3c(sc(NC(=O)c4cccc5ccccc45)c3C#N)C2)cc1OC [PKL-A179] | 34.7% | 52.2% | 66.5% | – | – | –
N#Cc1c(NC(=O)c2cccc3ccccc23)sc2c1CCN(S(=O)(=O)c1cccc3ccccc13)C2 [PKL-A183] | 48.6% | 67.2% | 72.3% | – | – | –
C=CC(=O)N1CCc2c(sc(NC(=O)c3cccc4ccccc34)c2C#N)C1 [PKL-A190] | 24.2% | 31.8% | 76.2% | – | – | –
N#Cc1c(NC(=O)c2cccc3ccccc23)sc2c1CCN(C(=O)c1cccc(F)c1)C2 [PKL-A192] | 22.9% | 38% | 60.1% | – | – | –
N#Cc1ccc(C(=O)N2CCc3c(sc(NC(=O)c4cccc5ccccc45)c3C#N)C2)cc1 [PKL-A193] | 23.4% | 37.6% | 62.3% | – | – | –
C=CCN1CCc2c(sc(NC(=O)c3cccc4ccccc34)c2C#N)C1 [PKL-B129] | 35.5% | 49.9% | 71.2% | – | – | –
N#Cc1c(NC(=O)c2cccc3ccccc23)sc2c1CCN(CC(=O)c1ccccc1)C2 [PKL-B130] | 16.8% | 26.2% | 64.1% | – | – | –
CC(C)CCN1CCc2c(sc(NC(=O)c3cccc4ccccc34)c2C#N)C1 [PKL-B133] | 28.1% | 40.6% | 69.3% | – | – | –
N#Cc1c(NC(=O)c2cccc3ccccc23)sc2c1CCN(CCn1cnc3ccccc31)C2 [PKL-B153, N-(6-(2-(1H-benzo[d]imidazol-1-yl)ethyl)-3-cyano-4,5,6,7-tetrahydrothieno[2,3c]pyridin-2-yl)-1-naphthamide] | 34.3% | 46.4% | 74% | – | – | –
N#Cc1c(NC(=O)c2cccc3ccccc23)sc2c1CCN(CC(=O)NC1CCOCC1)C2 [PKL-B164] | 36.8% | 49.6% | 74.1% | – | – | –
C#Cc1cccc(NC(=O)CN2CCc3c(sc(NC(=O)c4cccc5ccccc45)c3C#N)C2)c1 [PKL-B170] | 55.6% | 84.2% | 66% | – | – | –
N#Cc1c(NC(=O)c2cccc3ccccc23)sc2c1CCN(CC(=O)Nc1ccccc1)C2 [PKL-B173] | 34.7% | 49% | 70.8% | – | – | –
